“And” between values parts separate entries of the source, which are not always exact repeats. Equal entries are not always repeated.
System: 254851-301-R-J1-PDC spheroids, viability % test/control
Assay: Anticancer human tumor 254851-301-R-J1-PDC patient-derived colon carcinoma cell line growth inhibition [TAK]
Conditions: spheroids with HUVEC and MSC; for viability, T/C: stronger effect = lower value
Procedure, shortened: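 Spheroids of 60% malignant cells, 25% HUVEC and 15% hMSC were exposed to targeted agents combined with TAK-243 or ipatasertib. Concentrations started at or near clinical Cmax (10 microM if unknown) and descended in half-log steps.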
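Further: spheroids exposed to drugs for seven days before viability readout.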
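Wherever viability, T/C is given: 100% = DMSO vehicle control viability.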

CCCS(=O)(=O)Nc1ccc(F)c(C(=O)c2c[nH]c3ncc(-c4ccc(Cl)cc4)cc23)c1F + CC(C)NCC(C(=O)N1CCN(c2ncnc3c2C(C)CC3O)CC1)c1ccc(Cl)cc1
IC50 (curve of first compound, second compound 0.3 µM): > 100 µM
IC50 (curve of first compound, second compound 0.949 µM): > 100 µM
IC50 (curve of first compound, second compound 3 µM): > 100 µM
IC50 (curve of first compound, second compound 9.49 µM): > 100 µM
IC50 (curve of first compound, second compound 30 µM): > 100 µM
viability, T/C (second compound 0.3 µM, first compound 0.316 µM): 92.5%
viability, T/C (second compound 0.3 µM, first compound 1 µM): 90.3%
viability, T/C (second compound 0.3 µM, first compound 3.16 µM): 63.9%
viability, T/C (second compound 0.3 µM, first compound 10 µM): 68.4%
viability, T/C (second compound 0.3 µM, first compound 31.6 µM): 38.1%
viability, T/C (second compound 0.3 µM, first compound 100 µM): 85.7%
viability, T/C (second compound 0.949 µM, first compound 0.316 µM): 99.2%
viability, T/C (second compound 0.949 µM, first compound 1 µM): 95.1%
viability, T/C (second compound 0.949 µM, first compound 3.16 µM): 79.4%
viability, T/C (second compound 0.949 µM, first compound 10 µM): 64.8%
viability, T/C (second compound 0.949 µM, first compound 31.6 µM): 30.2%
viability, T/C (second compound 0.949 µM, first compound 100 µM): 76.8%
viability, T/C (second compound 3 µM, first compound 0.316 µM): 79.7%
viability, T/C (second compound 3 µM, first compound 1 µM): 88.8%
viability, T/C (second compound 3 µM, first compound 3.16 µM): 70.3%
viability, T/C (second compound 3 µM, first compound 10 µM): 67.9%
viability, T/C (second compound 3 µM, first compound 31.6 µM): 20.2%
viability, T/C (second compound 3 µM, first compound 100 µM): 82.5%
viability, T/C (second compound 9.49 µM, first compound 0.316 µM): 95.3%
viability, T/C (second compound 9.49 µM, first compound 1 µM): 85.3%
viability, T/C (second compound 9.49 µM, first compound 3.16 µM): 71%
viability, T/C (second compound 9.49 µM, first compound 10 µM): 51.5%
viability, T/C (second compound 9.49 µM, first compound 31.6 µM): 52.3%
viability, T/C (second compound 9.49 µM, first compound 100 µM): 83%
viability, T/C (second compound 30 µM, first compound 0.316 µM): 91.5%
viability, T/C (second compound 30 µM, first compound 1 µM): 92.8%
viability, T/C (second compound 30 µM, first compound 3.16 µM): 82.6%
viability, T/C (second compound 30 µM, first compound 10 µM): 51.8%
viability, T/C (second compound 30 µM, first compound 31.6 µM): 26.7%
viability, T/C (second compound 30 µM, first compound 100 µM): 80.7%

CC(C)NCC(C(=O)N1CCN(c2ncnc3c2C(C)CC3O)CC1)c1ccc(Cl)cc1 (centres undefined)
viability, T/C (compound 0.3 µM): 91.8% [middle of 10 runs]
viability, T/C (compound 0.949 µM): 91.8% [middle of 10 runs]
viability, T/C (compound 3 µM): 95% [middle of 10 runs]
viability, T/C (compound 9.49 µM): 91.9% [middle of 10 runs]
viability, T/C (compound 30 µM): 86% [middle of 10 runs]
IC50 (compound alone, run of 02/28/2020): > 30 µM
IC50 (compound alone, run of 03/19/2020): > 30 µM

COc1c(OCCCN2CCOCC2)ccc2c3n(c(=NC(=O)c4cnc(N)nc4)nc12)CCN3
viability, T/C (compound 0.00316 µM): 110% and 106%
viability, T/C (compound 0.01 µM): 96.2% and 96.4%
viability, T/C (compound 0.0316 µM): 87.8% and 82.2%
viability, T/C (compound 0.1 µM): 78% and 71.7%
viability, T/C (compound 0.316 µM): 75.6% and 65.8%
viability, T/C (compound 1 µM): 59.5% and 56.5%
IC50 (curve of compound): > 1 µM
